Measured values taken from patent US20070015813A1, “Treatment of protein folding disorders” (QUEEN'S UNIVERSITY AT KINGSTON, priority 2005, published 2007).

Experiments:
Format in all cases: biochemical
Aβ1-40 [1] = target: T1, Aβ1-40 (Homo sapiens, UniProt P05067); assay: Kinetic Thioflavin T (ThT) aggregation assay of Aβ1-40; conditions: 20 μM Aβ1-40, 4 μM ThT, pH 7.4, 37° C., kinetic ThT assay
T1 construct: Aβ^1-40 (AnaSpec, San Jose, Calif., lots 14212, 34862 and 34889); purchased AnaSpec, San Jose, Calif
Procedure: Aβ^1-40 (1.0 mg) was pre-treated in a 1.5 mL microfuge tube with 1,1,1,3,3,3-hexafluoroisopropanol (HFIP, 1 mL) and sonicated for 20 min. to disassemble any pre-formed Aβ aggregates. The HFIP was removed with a stream of argon and the Aβ dissolved in Tris base (5.8 mL, 20 mM, pH 10.5). The pH was adjusted to 7.4 with concentrated HCl and the solution filtered using a syringe filter (0.2 μm). This solution was used for circular dichroism studies or diluted with an equal volume of 8 μM Thioflavin T (ThT) in Tris-HCl (20 mM, pH 7.4, 300 mM NaCl) for the ThT aggregation assay.
(§1) Aliquots (200 μL) of Aβ^1-40, Aβ^1-42, tau441 or α-synuclein with ThT or ThS were added to wells of a black polystyrene 96-well plate, followed by 2 μL of a compound in DMSO (various concentrations), or DMSO alone (controls). For α-synuclein, sodium dodecyl sulfate solution (2.0 μL, 30 mM) was also added to each well to induce aggregation. Incubations were performed in triplicate and were taken to contain 20 μM Aβ^1-40 or Aβ^1-42, 6 μM tau441 or 4 μM α-synuclein. Plates were covered with clear polystyrene lids and incubated at 37° C. in a GENios microplate reader obtained from Tecan Group Limited, Mannedorf, Zurich. For Aβ^1-40, tau441 and α-synuclein, fluorescence readings (λex=450 nm, λem=480 nm) were taken every 15 min., after first shaking at high intensity for 15 sec. and allowing to settle for 10 sec. before each reading. For Aβ^1-42, readings were taken every 5 min.
(§2) The absorbance of each compound was measured under the conditions used during testing, though on ten times the scale (2 mL), to ensure no significant quenching interfered with the assay. This step was also used to identify whether compounds were completely soluble under testing conditions.
FIG. 1 depicts the inhibition of Aβ^1-40 aggregation, as measured by Thioflavin T (ThT) fluorescence, by directly-linked 3,3′-bis-indolyl compounds 0c-i (A), other bis-indoles (B), aza-indole-containing compounds (C), indole-phenols (D), indole-5-carboxylic acid-containing bi-aromatics (E), and naphthol-containing bi-aromatics (F). Aggregation conditions: 20 μM Aβ^1-40 incubated in covered black 96-well polystyrene microplates with 4 μM ThT, pH 7.4, Tris-HCl (20 mM), 150 mM NaCl, 1% DMSO. Compound concentrations are 200 μM (A,B, except where otherwise noted), 100 μM (E), 20 μM (F), or as indicated (C,D). Plates heated at 37° C. in Tecan Genios microplate reader. All incubations performed in triplicate. Prior to experiment, Aβ^1-40 pretreated with 1,1,1,3,3,3-hexafluoroisopropanol (HFIP). Fluorescence readings: fluorescence measured every 15 min. (λex=450 nm, λem=480 nm) after shaking for 15 sec. and pausing 10 sec. before taking measurement. Values are the mean of three replicates. Error bars, omitted for clarity in (B), represent standard deviation of the mean.

Aβ1-42 = target: T2, Aβ1-42 (Homo sapiens, UniProt P05067); assay: Kinetic Thioflavin T (ThT) aggregation assay of Aβ1-42; conditions: 20 μM Aβ1-42, kinetic ThT assay
T2 construct: Aβ^1-42 (AnaSpec, lot 45685); purchased AnaSpec
Procedure: Aβ^1-42 (1.0 mg) was either pretreated with HFIP in the same manner as Aβ^1-40 or this step was omitted. After removing HFIP, when appropriate, Aβ^1-42 was dissolved in 1% NH3 (aq.) (200 μL) and sonicated for 1 min. The solution was diluted with Tris-HCl (5.7 mL, 20 mM, pH 7.4), the pH adjusted to 7.4 with concentrated HCl (aq.) and the solution filtered using a syringe filter (0.2 μm). Prior to use in the ThT aggregation assay, the solution was diluted with an equal volume of 8 μM Thioflavin T (ThT) in Tris-HCl (20 mM, pH 7.4, 300 mM NaCl).
as §1, §2
FIG. 7 depicts inhibition of Aβ^1-42 aggregation by various synthesized bi-aromatic compounds and positive controls morin (Ono K, Yoshiike Y, Takashima A, Hasegawa K, Naiki H, Yamada M. 2003. J Neurochem 87:172-81) and RS-0406 (Walsh D M, Townsend M, Podlisny M B, Shankar G M, Fadeeva J V, Agnaf O E, Hartley D M, Selkoe D J. 2005. J Neurosci 25:2455-62) in the kinetic ThT assay. Same conditions as for Aβ^1-40, FIG. 1. Compound concentrations were 100 μM in (A), 20 μM in (B), except for RS-0406, which was tested at 100 μM, and 20 μM in (C).

Aβ1-40 [2] = target: T1, Aβ1-40; assay: Circular dichroism studies of Aβ1-40; conditions: 40 μM Aβ1-40, 200 μM compound, pH 7.4, 37° C.
Procedure: Aliquots (220 μL) of pretreated Aβ^1-40 (40 μM in 20 mM Tris-HCl, pH 7.4) were added directly to 1 mm quartz circular dichroism (CD) cells, followed by 2.2 μL compound (of varying concentration) in methanol or methanol alone (controls). Solutions were incubated at 37° C. for up to 6 days. CD scans were performed on a J-810 spectropolarimeter (obtained from Jasco Corporation, Tokyo, Japan) between 190 and 250 nm, with a resolution of 0.1 nm and bandwidth of 1 nm. Ten scans were obtained for each reading. Spectra had background CD of the buffer subtracted and were left unsmoothed. Readings were performed at 37° C.
FIG. 6 depicts circular dichroism (CD) of Aβ^1-40 alone (A) and in the presence of 0j (B) and morin (C). Conditions: 40 μM Aβ^1-40, 200 μM compound (B,C), pH 7.4, Tris-HCl (20 mM), 1% MeOH. Prior to experiment, Aβ^1-40 pretreated with 1,1,1,3,3,3-hexafluoroisopropanol (HFIP).

T1 sequence (P05067 672-711 limits assumed): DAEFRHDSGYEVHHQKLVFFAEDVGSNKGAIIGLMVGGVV
T2 sequence (P05067 672-713 limits assumed): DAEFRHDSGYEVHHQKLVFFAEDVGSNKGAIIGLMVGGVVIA

O=C(O)c1ccc2[nH]cc(-c3c[nH]c4ccc(O)cc34)c2c1 [0j, 3-(5-Hydroxy-indol-3-yl)-indole-5-carboxylic Acid]
inhibition of Aβ1-40 aggregation, as measured by Thioflavin T (ThT) fluorescence (Aβ1-40 [1]): inhibition
inhibition of Aβ1-42 aggregation, as measured by ThT fluorescence (Aβ1-42): inhibiting aggregation
random coil (RC)→β-sheet transition of Aβ1-40 by circular dichroism (Aβ1-40 [2]): inhibited to a greater extent
